In the supplement of paper PMC4862054:

Legend:
Conditions in all cases: incubation time: 72 h
MCF-10A [1] = assay: normalised response (% of control), CellTox Green; higher = less cell death (100 = DMSO, 0 = benzethonium chloride kill control)
Procedure, shortened: (§1)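 A 20 µl suspension of breast cancer cells was seeded into each well of 384-well plates containing compound at 5 concentrations in 10-fold steps over a compound-specific 10,000-fold range. After 72 h incubation, CellTox Green fluorescence (485/520 nm) was read first, and CellTiter-Glo luminescence was read after 10 min at room temperature. Each plate was normalised against 0.1 % DMSO (100) and a positive kill control (0), and each value is the normalised signal at one concentration.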

MDA-MB-453 [2] = assay: as above
Procedure, shortened: as §1

CAL-120 [3] = assay: as above
Procedure, shortened: as §1

CAL-85-1 [4] = assay: as above
Procedure, shortened: as §1

MFM-223 [5] = assay: as above
Procedure, shortened: as §1

CAL-148 [6] = assay: as above
Procedure, shortened: as §1

HCC1143 [7] = assay: as above
Procedure, shortened: as §1

HDQ-P1 [8] = assay: as above
Procedure, shortened: as §1

DU-4475 [9] = assay: as above
Procedure, shortened: as §1

CAL-51 [10] = assay: as above
Procedure, shortened: as §1

BT-474 [11] = assay: as above
Procedure, shortened: as §1

BT-549 [12] = assay: as above
Procedure, shortened: as §1

MDA-MB-468 [13] = assay: as above
Procedure, shortened: as §1

Hs578T [14] = assay: as above
Procedure, shortened: as §1

HCC1937 [15] = assay: as above
Procedure, shortened: as §1

MDA-MB-231 [16] = assay: as above
Procedure, shortened: as §1

MDA-MB-436 [17] = assay: as above
Procedure, shortened: as §1

HCC1599 [18] = assay: as above
Procedure, shortened: as §1

SK-BR-3 [19] = assay: normalised response (% of control), CellTiter-Glo; higher = more viable cells (100 = DMSO, 0 = benzethonium chloride kill control)
Method: (§2)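 DSRT, 72 h incubation, CellTox Green / CellTiter-Glo readout. Signal is normalised to DMSO and benzethonium chloride controls. Value is the normalised response at the highest dose.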

MCF-10A [20] = assay: as above
Method: as §2

MDA-MB-453 [21] = assay: as above
Method: as §2

CAL-120 [22] = assay: as above
Method: as §2

CAL-85-1 [23] = assay: as above
Method: as §2

MFM-223 [24] = assay: as above
Method: as §2

CAL-148 [25] = assay: as above
Method: as §2

HCC1143 [26] = assay: as above
Method: as §2

HDQ-P1 [27] = assay: as above
Method: as §2

DU-4475 [28] = assay: as above
Method: as §2

CAL-51 [29] = assay: as above
Method: as §2

BT-474 [30] = assay: as above
Method: as §2

BT-549 [31] = assay: as above
Method: as §2

MDA-MB-468 [32] = assay: as above
Method: as §2

Hs578T [33] = assay: as above
Method: as §2

HCC1937 [34] = assay: as above
Method: as §2

MDA-MB-231 [35] = assay: as above
Method: as §2

MDA-MB-436 [36] = assay: as above
Method: as §2

HCC1599 [37] = assay: as above
Method: as §2

SK-BR-3 [38] = assay: normalised response (% of control), CellTiter-Glo; higher = more viable cells (100 = DMSO, 0 = benzethonium chloride kill control); remark: listed apart in the source
Procedure, shortened: as §1

MCF-10A [39] = assay: as above; remark: listed apart in the source
Procedure, shortened: as §1

MDA-MB-453 [40] = assay: as above; remark: listed apart in the source
Procedure, shortened: as §1

CAL-120 [41] = assay: as above; remark: listed apart in the source
Procedure, shortened: as §1

CAL-85-1 [42] = assay: as above; remark: listed apart in the source
Procedure, shortened: as §1

MFM-223 [43] = assay: as above; remark: listed apart in the source
Procedure, shortened: as §1

CAL-148 [44] = assay: as above; remark: listed apart in the source
Procedure, shortened: as §1

HCC1143 [45] = assay: as above; remark: listed apart in the source
Procedure, shortened: as §1

HDQ-P1 [46] = assay: as above; remark: listed apart in the source
Procedure, shortened: as §1

DU-4475 [47] = assay: as above; remark: listed apart in the source
Procedure, shortened: as §1

CAL-51 [48] = assay: as above; remark: listed apart in the source
Procedure, shortened: as §1

BT-474 [49] = assay: as above; remark: listed apart in the source
Procedure, shortened: as §1

BT-549 [50] = assay: as above; remark: listed apart in the source
Procedure, shortened: as §1

MDA-MB-468 [51] = assay: as above; remark: listed apart in the source
Procedure, shortened: as §1

Hs578T [52] = assay: as above; remark: listed apart in the source
Procedure, shortened: as §1

HCC1937 [53] = assay: as above; remark: listed apart in the source
Procedure, shortened: as §1

MDA-MB-231 [54] = assay: as above; remark: listed apart in the source
Procedure, shortened: as §1

MDA-MB-436 [55] = assay: as above; remark: listed apart in the source
Procedure, shortened: as §1

HCC1599 [56] = assay: as above; remark: listed apart in the source
Procedure, shortened: as §1

| SMILES | normalised response (MCF-10A [1]) | normalised response (MDA-MB-453 [2]) | normalised response (CAL-120 [3]) | normalised response (CAL-85-1 [4]) | normalised response (MFM-223 [5]) | normalised response (CAL-148 [6]) | normalised response (HDQ-P1 [8]) | normalised response (DU-4475 [9]) | normalised response (CAL-51 [10]) | normalised response (BT-474 [11]) | normalised response (BT-549 [12]) | normalised response (MDA-MB-468 [13]) | normalised response (Hs578T [14]) | normalised response (HCC1937 [15]) | normalised response (MDA-MB-231 [16]) | normalised response (MDA-MB-436 [17]) | normalised response (HCC1599 [18]) | normalised response (SK-BR-3 [19]) | normalised response (MCF-10A [20]) | normalised response (MDA-MB-453 [21]) | also measured |
| --- | --- | --- | --- | --- | --- | --- | --- | --- | --- | --- | --- | --- | --- | --- | --- | --- | --- | --- | --- | --- | --- |
| COc1cc2c(NC3CCN(C(C)C)CC3)nc(N3CCC(F)(F)CC3)nc2cc1OCCCN1CCCC1 [UNC0642] (10000 nM) | 57% | 43.1% | 19.6% | -18.1% | 81.9% | 44.5% | 93.1% | 95.5% | 113% | -7.97% | 104% | -31.3% | 122% | 29.2% | -38.7% | 44% | 87.4% | 29.6% | 40.9% | 5.97% | normalised response (HCC1143 [7]): 76.4%; normalised response (CAL-120 [22]): 60.9%; normalised response (CAL-85-1 [23]): 5.34%; normalised response (MFM-223 [24]): 32.9%; normalised response (CAL-148 [25]): 32.4%; normalised response (HCC1143 [26]): 70.4%; normalised response (HDQ-P1 [27]): 48.9%; normalised response (DU-4475 [28]): 76.3%; normalised response (CAL-51 [29]): 79%; normalised response (BT-474 [30]): 33.3%; normalised response (BT-549 [31]): 56.3%; normalised response (MDA-MB-468 [32]): 3.41%; normalised response (Hs578T [33]): 91.6%; normalised response (HCC1937 [34]): 56.7%; normalised response (MDA-MB-231 [35]): 18.8%; normalised response (MDA-MB-436 [36]): 19.1%; normalised response (HCC1599 [37]): 94.2% |
| CNC(=O)c1ccc(N2C(=S)N(c3ccc(C#N)c(C(F)(F)F)c3)C(=O)C23CCC3)cc1F [RD162] (10000 nM) | 111% | 96.3% | 101% | 91.2% | 50.8% | 97.4% | 106% | 98.4% | 109% | 103% | 84.9% | 89.8% | 110% | 90.6% | 99.8% | 95.4% | 97.1% | 95.3% | 102% | 91.8% | normalised response (CAL-120 [22]): 101%; normalised response (CAL-85-1 [23]): 91.5%; normalised response (MFM-223 [24]): 89.5%; normalised response (CAL-148 [25]): 105%; normalised response (HCC1143 [26]): 95%; normalised response (HDQ-P1 [27]): 92.3%; normalised response (DU-4475 [28]): 95.5%; normalised response (CAL-51 [29]): 95.3%; normalised response (BT-474 [30]): 89.8%; normalised response (BT-549 [31]): 96.3%; normalised response (MDA-MB-468 [32]): 93.3%; normalised response (Hs578T [33]): 101%; normalised response (HCC1937 [34]): 93.8%; normalised response (MDA-MB-231 [35]): 85.1%; normalised response (MDA-MB-436 [36]): 92.6%; normalised response (HCC1599 [37]): 106% |
| CCn1c(-c2nonc2N)nc2cnc(Oc3cccc(NC(=O)c4ccc(OCCN5CCOCC5)cc4)c3)cc21 (10000 nM) | 93.4% | 108% | 103% | 109% | 93.6% | -66.5% | 109% | 97.6% | 43.7% | 98% | 100% | 74.3% | 110% | 78.5% | 52.4% | 74.1% | 97.9% | 40.9% | 62.9% | 72.2% | normalised response (HCC1143 [7]): -33.8%; normalised response (CAL-120 [22]): 58.5%; normalised response (CAL-85-1 [23]): 87.8%; normalised response (MFM-223 [24]): 62.1%; normalised response (CAL-148 [25]): 69.9%; normalised response (HCC1143 [26]): 76.4%; normalised response (HDQ-P1 [27]): 75.9%; normalised response (DU-4475 [28]): 80%; normalised response (CAL-51 [29]): 32.8%; normalised response (BT-474 [30]): 66%; normalised response (BT-549 [31]): 41.4%; normalised response (MDA-MB-468 [32]): 50.7%; normalised response (Hs578T [33]): 49%; normalised response (HCC1937 [34]): 76.6%; normalised response (MDA-MB-231 [35]): 64.4%; normalised response (MDA-MB-436 [36]): 73.3%; normalised response (HCC1599 [37]): 74.6% |
| S=P(N1CC1)(N1CC1)N1CC1 [Thio-TEPA] (50000 nM) | 97.2% | 103% | 99% | 93.8% | 77.7% | 89.4% | 97.6% | 97.7% | 48.1% | 101% | 93.5% | 119% |  | 73.4% | 113% | 103% | 97.7% | 101% | 104% | 111% | normalised response (CAL-120 [22]): 97.2%; normalised response (CAL-85-1 [23]): 93.7%; normalised response (MFM-223 [24]): 101%; normalised response (CAL-148 [25]): 98.1%; normalised response (HCC1143 [26]): 95.6%; normalised response (HDQ-P1 [27]): 99.7%; normalised response (DU-4475 [28]): 100%; normalised response (CAL-51 [29]): 63.8%; normalised response (BT-474 [30]): 91.7%; normalised response (BT-549 [31]): 77.2%; normalised response (MDA-MB-468 [32]): 96.9%; normalised response (Hs578T [33]): 103%; normalised response (HCC1937 [34]): 93%; normalised response (MDA-MB-231 [35]): 94.8%; normalised response (MDA-MB-436 [36]): 104%; normalised response (HCC1599 [37]): 111% |
| CCn1c(-c2nonc2N)nc2cnc(Oc3cccc(NC(=O)c4ccc(OCCN5CCOCC5)cc4)c3)cc21 (100 nM) | 97.3% | 101% | 102% | 98.3% | 95.4% | 98.4% | 105% | 100% | 63.3% | 103% | 90.2% | 119% | 66.9% | 108% | 79.4% | 82% | 96.8% |  |  |  | normalised response (HCC1143 [7]): 101%; normalised response (SK-BR-3 [38]): 97.9%; normalised response (MCF-10A [39]): 75.6%; normalised response (MDA-MB-453 [40]): 97.1%; normalised response (CAL-120 [41]): 81.9%; normalised response (CAL-85-1 [42]): 95.5%; normalised response (MFM-223 [43]): 98%; normalised response (CAL-148 [44]): 99.6%; normalised response (HCC1143 [45]): 103%; normalised response (HDQ-P1 [46]): 99.6%; normalised response (DU-4475 [47]): 95.4%; normalised response (CAL-51 [48]): 80%; normalised response (BT-474 [49]): 81.8%; normalised response (BT-549 [50]): 88.6%; normalised response (MDA-MB-468 [51]): 91.4%; normalised response (Hs578T [52]): 80.5%; normalised response (HCC1937 [53]): 102%; normalised response (MDA-MB-231 [54]): 86.5%; normalised response (MDA-MB-436 [55]): 103%; normalised response (HCC1599 [56]): 95.9% |
